According to patent US5431896A, “Microbial immunoregulant” (Merck & Co., Inc., priority 1992, dated 1995):
“And” between values parts separate entries of the source, which are not always exact repeats. Identical values can stand only once. “Also recorded” adds a separate entry of the source. Like-named read-outs stand apart in the source and are kept apart here.

What was measured:
[1] = reputed; EPO Publication No. 0184162; cited from earlier work
mouse T lymphocytes = assay: T-cell proliferation assay (ionomycin plus PMA induced T-cell stimulation, tritiated thymidine uptake); format: cell-based, C57B1/6 mice; conditions: for immunosuppressive activity by the T-cell proliferation assay: qualitative statement
Experimental: The principle of this assay is to measure the proliferation of mouse T lymphocytes stimulated with the combination of ionomycin plus PMA. A positive sample in this assay will inhibit T-cell proliferation, as indicated by reduced tritiated thymidine uptake.
Cells were pelleted by centrifugation at 1500 rpm for 8 minutes. Contaminating red cells were removed by treating the pellet with ammonium chloride lysing buffer (GIBCO) for 2 minutes at 4° C. Cold medium was added and cells were again centrifuged at 1500 rpm for 8 minutes. T lymphocytes were then isolated by separation of the cell suspension on nylon wool columns as follows: Nylon wool columns were prepared by packing approximately 4 grams of washed and dried nylon wool into 20 ml plastic syringes. The columns were sterilized by autoclaving at 250° F. for 30 minutes. Nylon wool columns were wetted with warm (37° C.) culture medium and rinsed with the same medium. Washed spleen cells resuspended in warm medium were slowly applied to the nylon wool. The columns were then incubated in an upright position at 37° C. for 1 hour. Non-adherent T lymphocytes were eluted from the columns with warm culture medium and the cell suspensions were spun as above.
The cell suspension was immediately distributed into 96 well flat-bottom microculture plates (Costar) at 200 μl/well. […] The proliferation of T lymphocytes was assessed by measurement of tritiated thymidine incorporation. After 44 hours of culturing, the cells were pulse-labelled with 2 μCi/well of tritiated thymidine (NEN, Cambridge, Mass.). After another 4 hours of incubation, cultures were harvested on glass fiber filters using a multiple sample harvester. Radioactivity of filter discs corresponding to individual wells was measured by standard liquid scintillation counting methods (Betacounter). Mean counts per minute of replicate wells were calculated and the results expressed as percent inhibition of tritiated thymidine uptake (proliferation) as follows: [formula]

Solubility = format: physicochemical; conditions: methanol

In the case of `C=CC[C@@H]1/C=C(\C)C[C@H](C)C[C@H](OC)[C@H]2O[C@@](O)(C(=O)C(=O)N3CCCC[C@H]3C(=O)O[C@H](/C(C)=C/[C@@H]3CC[C@@H](O)[C@H](OC)C3)[C@H](C)[C@@H](O)CC1=O)[C@H](C)C[C@@H]2OC` [FK-506, reference compound], the “potency relative to cyclosporin” value [1] is given as 100 times and the inhibition at 0.01 µg/mL (mouse T lymphocytes; Mus musculus, T-lymphocyte, 48 h, read-out: inhibition of T-cell proliferation by standard) is given as 99%.

With `CO[C@H]1C[C@@H](C)C/C(C)=C/[C@@H](C)C(=O)C[C@H](O)[C@@H](C)[C@@H](/C(C)=C/[C@@H]2CC[C@@H](O)[C@H](O)C2)OC(=O)[C@@H]2CCCCN2C(=O)C(=O)[C@]2(O)O[C@H]1[C@@H](OC)C[C@H]2C` [L-687,819] the Solubility (Solubility) was “Solubility in methanol”, the IC50 (mouse T lymphocytes; Mus musculus, T-lymphocyte, 48 h, read-out: IC50 (inhibition of T-cell proliferation)) was 0.007 µg/mL and 9.17 nM and the inhibition at 0.00011 µg/mL (mouse T lymphocytes; Mus musculus, T-lymphocyte, L-687,819 0.11 ng/ml, 48 h) was 9.5%. For the same compound, the inhibition at 0.00026 µg/mL (mouse T lymphocytes; Mus musculus, T-lymphocyte, L-687,819 0.26 ng/ml, 48 h) was 9.1%, the inhibition at 0.00058 µg/mL (mouse T lymphocytes; Mus musculus, T-lymphocyte, L-687,819 0.58 ng/ml, 48 h) was 0% and the inhibition at 0.0013 µg/mL (mouse T lymphocytes; Mus musculus, T-lymphocyte, L-687,819 1.3 ng/ml, 48 h) was 0%. For the same compound, the inhibition at 0.0029 µg/mL (mouse T lymphocytes; Mus musculus, T-lymphocyte, L-687,819 2.9 ng/ml, 48 h) was 0%, the inhibition at 0.0044 µg/mL (mouse T lymphocytes; Mus musculus, T-lymphocyte, L-687,819 4.4 ng/ml, 48 h) was 15.9% and the inhibition at 0.0066 µg/mL (mouse T lymphocytes; Mus musculus, T-lymphocyte, L-687,819 6.6 ng/ml, 48 h) was 51.3%. The inhibition at 0.01 µg/mL (mouse T lymphocytes; Mus musculus, T-lymphocyte, L-687,819 10 ng/ml, 48 h, read-out: % Inhibition of T-cell proliferation) was 76.1%, the inhibition at 0.1 µg/mL (mouse T lymphocytes; Mus musculus, T-lymphocyte, L-687,819 100 ng/ml, 48 h) was 98.8% and the “Inhibition of proliferation on addition of recombinant human IL2” value (mouse T lymphocytes; addition of 50 units/ml recombinant human IL2) was “reversed”. For the same compound, the “immunosuppressive activity by the T-cell proliferation assay” value (mouse T lymphocytes) was “positive immunosuppressive activity; also recorded: positive inhibition of T-cell activation” and the “immunosuppressive activity by the T-cell proliferation assay” value (mouse T lymphocytes; listed as minor component) was “shown to possess immunosuppressive activity”.
